Results reported in US8633242B2, “Benzylidene indanones and processes for preparation and use thereof” (Council of Scientific and Industrial Research, priority 2011, dated 2014).

Legend:
HeLa (Cervix) = experiment: Sulphorhodamine B cytotoxicity assay, HeLa; type: cell-based, human; parameters: key to Human cancer cell lines IC50, HeLa (Cervix): Inactive: inactive, if IC50 > 100 μM; details: SRB assay, 48 hours incubation; for IC50: Homo sapiens, HeLa, read-out: Human cancer cell lines IC50, HeLa (Cervix)
Procedure: (§1) The benzylidene analogues were evaluated by Sulphorhodamine B Assay as per reported method [Skehan et al., J. Natl. Cancer Inst. 1990, 82, 1107]. The human cancer cell lines procured from National Cancer institute, Frederick, U.S.A. were used in present study. Cells were grown in tissue culture flasks in complete growth medium (RPMI-1640 medium with 2 mM glutamine, pH 7.4 supplemented with 10% fetal bovine serum, 100 μg/ml streptomycin and 100 units/ml penicillin) in a carbon dioxide incubator (37° C., 5% CO2, 90% RH). The cells at subconfluent stage were harvested from the flask by treatment with trypsin (0.05% in PBS (pH 7.4) containing 0.02% EDTA). Cells with viability of more than 98%, as determined by trypan blue exclusion, were used for determination of cytotoxicity. The cell suspension required concentration of cells was prepared in complete growth medium. Stock solution of 2×10^−2 M of compounds were prepared in DMSO and further dilution was carried out complete growth medium containing 50 μg/ml of gentamycin to obtained working test solution of required concentration. In vitro cytotoxicity against various human cancer cell lines was determined using 96-well cell culture plates. The 100 μl of cell suspension was added to each well of the 96-well cell culture plates. The cells were allowed to grow in CO2 incubator (37° C., 5% CO2, 90% RH) for 24 hours. The test materials in complete growth medium (100 μl) were added after 24 hours incubation to the wells containing cell suspension. The plates were further incubated for 48 hours (37° C. in an atmosphere of 5% CO2 and 90% relative humidity) in a carbon dioxide incubator after addition of test material and then the cell growth was stopped by gently layering trichloroacetic acid (50% TCA, 50 μl) on top of the medium in all the wells. The plates were incubated at 4° C. for one hour to fix the cells attached to the bottom of the wells. The liquid of all the wells was gently pipetted out and discarded. The plates were washed five times with distilled water to remove TCA, growth medium low molecular weight metabolites, serum proteins etc. and air-dried. Cell growth was measured by staining with sulforhodamine B dye. The adsorbed dye was dissolved in Tris-HCl Buffer (100 μl/well, 0.01M, pH 10.4) and plates were gently stirred for 10 minutes on a mechanical stirrer. The optical density (OD) was recorded on ELISA reader at 540 nm. 5-Fluorouracil, Paclitaxel (Taxol), Mitomycin-c and Adriamycin were used as positive controls.

PC-3 (prostate) = experiment: Sulphorhodamine B cytotoxicity assay, PC-3; type: cell-based, human; parameters: key to Human cancer cell lines IC50, PC-3 (prostate): Inactive: inactive, if IC50 > 100 μM; details: SRB assay, 48 hours incubation; for IC50: Homo sapiens, read-out: Human cancer cell lines IC50, PC-3 (prostate)
Procedure: as §1

THP-1 (Leukemia) = experiment: Sulphorhodamine B cytotoxicity assay, THP-1; type: cell-based, human; parameters: key to Human cancer cell lines IC50, THP-1 (Leukemia): Inactive: inactive, if IC50 > 100 μM; details: for IC50: Homo sapiens, THP-1, read-out: Human cancer cell lines IC50, THP-1 (Leukemia); for IC50 / Human cancer cell lines IC50, THP-1 (Leukemia): SRB assay, 48 hours incubation
Procedure: as §1

DU-145 (prostate) = experiment: Sulphorhodamine B cytotoxicity assay, DU-145; type: cell-based, human; parameters: key to Human cancer cell lines IC50, DU-145 (prostate): Inactive: inactive, if IC50 > 100 μM; details: SRB assay, 48 hours incubation; for IC50: Homo sapiens, DU-145, read-out: Human cancer cell lines IC50, DU-145 (prostate)
Procedure: as §1

MCF-7 (Breast cancer) = experiment: Sulphorhodamine B cytotoxicity assay, MCF-7; type: cell-based, human; parameters: key to Human cancer cell lines IC50, MCF-7 (Breast cancer): Inactive: inactive, if IC50 > 100 μM; details: for IC50: Homo sapiens, MCF7, read-out: Human cancer cell lines IC50, MCF-7 (Breast cancer)
Procedure: as §1

HCT (Colon) = experiment: Sulphorhodamine B cytotoxicity assay, HCT; type: cell-based, human; parameters: key to Human cancer cell lines IC50, HCT (Colon): Inactive: inactive, if IC50 > 100 μM; details: SRB assay, 48 hours incubation; for IC50: Homo sapiens, read-out: Human cancer cell lines IC50, HCT (Colon)
Procedure: as §1

A549 (Lung) = experiment: Sulphorhodamine B cytotoxicity assay, A549; type: cell-based, human; parameters: key to Human cancer cell lines IC50, A549 (Lung): Inactive: inactive, if IC50 > 100 μM; details: SRB assay, 48 hours incubation; for IC50: Homo sapiens, A549, read-out: Human cancer cell lines IC50, A549 (Lung)
Procedure: as §1

tubulin protein = experiment: In-vitro tubulin polymerisation inhibition assay; type: biochemical; parameters: key to Tubulin polymerisation inhibition IC50: Inactive: inactive, if IC50 > 10 μM; details: for IC50: read-out: Tubulin polymerisation inhibition IC50; for IC50 / Tubulin polymerisation inhibition IC50: tubulin 3 mg/mL, 37° C., 340 nm, 1 h
Procedure: The tubulin polymerization experiment was performed using ‘assay kit’ (Cytoskeleton USA) following manufacturer's protocol based on the procedure described by of Shelanski et al. (1973) and Lee et al. (1977). Briefly, tubulin protein (3 mg/mL) in tubulin polymerization buffer (80 mM PIPES, pH 6.9, 2 mM MgCl2, 0.5 mM EGTA, 1 mM GTP and 15% glycerol) was placed in pre-warmed 96-well microtiter plates at 37° C. in the presence of test compounds with variable concentrations. All samples were mixed well and polymerization was monitored kinetically at 340 nm every min for 1 h using a Spectramax plate reader. Podophyllotoxin and etoposide were used as positive controls and DMSO as negative control. The IC50 value was determined from dose-dependent analysis and is defined as the concentration that inhibits the rate of polymerization by 50%.
Podophyllotoxin and etoposide, standard tubulin polymerisation inhibitors were used as positive controls.

COc1ccc(/C=C2\C(=O)c3cc(OC)c(OC)c(OC)c3C2c2cc(OC)c(OC)c(OC)c2)cc1 (stereo not shown) [Compound 10, 2-(4″-methoxybenzylidene),3(3′,4′,5′-trimethoxyphenyl)-4,5,6-trimethoxy indan-1-one]
IC50 (HeLa (Cervix)): 21 µM | melting point: 188 to 190 °C | IC50 (PC-3 (prostate)): 65.7 µM | activity against leukemia cell lines (THP), in words (THP-1 (Leukemia)): potent activity | IC50 (THP-1 (Leukemia)): 0.88 µM | IC50 (DU-145 (prostate)): 44.9 µM | anticancer activity against human breast cancer cells (MCF-7), in words (MCF-7 (Breast cancer)): potent anticancer activity | IC50 (MCF-7 (Breast cancer); SRB assay, 48 hours incubation): 3.18 µM | IC50 (HCT (Colon)): 18.6 µM | IC50 (A549 (Lung)): 13.4 µM | inhibition of tubulin polymerisation, in words (tubulin protein): strong inhibition | IC50 (tubulin protein): 4.67 µM

COc1cc(C2/C(=C/c3cccc([N+](=O)[O-])c3)C(=O)c3cc(OC)c(OC)c(OC)c32)cc(OC)c1OC (stereo not shown) [Compound 12, 2-(3″-nitrobenzylidene),3-(3′,4′,5′-trimethoxyphenyl)-4,5,6-trimethoxy indan-1-one]
Human cancer cell lines IC50, HeLa (Cervix) (HeLa (Cervix)): Inactive | melting point: 215 to 217 °C | Human cancer cell lines IC50, PC-3 (prostate) (PC-3 (prostate)): Inactive | Human cancer cell lines IC50, THP-1 (Leukemia) (THP-1 (Leukemia)): Inactive | Human cancer cell lines IC50, DU-145 (prostate) (DU-145 (prostate)): Inactive | Human cancer cell lines IC50, MCF-7 (Breast cancer) (MCF-7 (Breast cancer); SRB assay, 48 hours incubation): Inactive | Human cancer cell lines IC50, HCT (Colon) (HCT (Colon)): Inactive | Human cancer cell lines IC50, A549 (Lung) (A549 (Lung)): Inactive | Tubulin polymerisation inhibition IC50 (tubulin protein): Inactive

COc1ccc(/C=C2\C(=O)c3cc(OC)c(OC)c(OC)c3C2c2cc(OC)c(OC)c(OC)c2)c(OC)c1 (stereo not shown) [Compound 21, 2-(2″,4″-dimethoxybenzylidene), 3-(3′,4′,5′-trimethoxyphenyl)-4,5,6-trimethoxy indan-1-one]
Human cancer cell lines IC50, HeLa (Cervix) (HeLa (Cervix)): Inactive | melting point: 191 to 192 °C | IC50 (PC-3 (prostate)): 71.7 µM | Human cancer cell lines IC50, THP-1 (Leukemia) (THP-1 (Leukemia)): Inactive | IC50 (DU-145 (prostate)): 2.04 µM | anticancer activity against human breast cancer cells (MCF-7), in words (MCF-7 (Breast cancer)): potent anticancer activity | IC50 (MCF-7 (Breast cancer); SRB assay, 48 hours incubation): 1 µM | IC50 (HCT (Colon)): 11.1 µM | IC50 (A549 (Lung)): 71.6 µM | inhibition of tubulin polymerisation, in words (tubulin protein): strong inhibition | IC50 (tubulin protein): 3.04 µM

COc1cc(/C=C2\C(=O)c3cc(OC)c(OC)c(OC)c3C2c2cc(OC)c(OC)c(OC)c2)cc(OC)c1OC (stereo not shown) [Compound 9, 2-(3″,4″,5″-trimethoxybenzylidene), 3-(3′,4′,5′-trimethoxyphenyl)-4,5,6-trimethoxy indan-1-one]
IC50 (HeLa (Cervix)): 82.3 µM | melting point: 118 to 120 °C | Human cancer cell lines IC50, PC-3 (prostate) (PC-3 (prostate)): Inactive | IC50 (THP-1 (Leukemia)): 64.9 µM | Human cancer cell lines IC50, DU-145 (prostate) (DU-145 (prostate)): Inactive | IC50 (MCF-7 (Breast cancer); SRB assay, 48 hours incubation): 38.9 µM | IC50 (HCT (Colon)): 39.7 µM | IC50 (A549 (Lung)): 67.6 µM | inhibition of tubulin polymerisation, in words (tubulin protein): strong inhibition | IC50 (tubulin protein): 4.62 µM

COc1ccc(/C=C2\C(=O)c3cc(OC)c(OC)c(OC)c3C2c2cc(OC)c(OC)c(OC)c2)cc1OC (stereo not shown) [Compound 13, 2-(3″,4″-dimethoxybenzylidene), 3-(3′,4′,5′-trimethoxyphenyl)-4,5,6-trimethoxy indan-1-one]
Human cancer cell lines IC50, HeLa (Cervix) (HeLa (Cervix)): Inactive | melting point: 179 to 180 °C | Human cancer cell lines IC50, PC-3 (prostate) (PC-3 (prostate)): Inactive | IC50 (THP-1 (Leukemia)): 62 µM | Human cancer cell lines IC50, DU-145 (prostate) (DU-145 (prostate)): Inactive | IC50 (MCF-7 (Breast cancer); SRB assay, 48 hours incubation): 80.8 µM | Human cancer cell lines IC50, HCT (Colon) (HCT (Colon)): Inactive | Human cancer cell lines IC50, A549 (Lung) (A549 (Lung)): Inactive | inhibition of tubulin polymerisation, in words (tubulin protein): strong inhibition | IC50 (tubulin protein): 0.62 µM

COc1cc(C2/C(=C/c3ccc(C(F)(F)F)cc3)C(=O)c3cc(OC)c(OC)c(OC)c32)cc(OC)c1OC (stereo not shown) [Compound 20, 2-(4″-trifluoromethylbenzylidene), 3-(3′,4′,5′-trimethoxyphenyl)-4,5,6-trimethoxy indan-1-one]
Human cancer cell lines IC50, HeLa (Cervix) (HeLa (Cervix)): Inactive | melting point: 188 to 190 °C | IC50 (PC-3 (prostate)): 27.9 µM | activity against leukemia cell lines (THP), in words (THP-1 (Leukemia)): potent activity | IC50 (THP-1 (Leukemia)): 8.67 µM | Human cancer cell lines IC50, DU-145 (prostate) (DU-145 (prostate)): Inactive | IC50 (MCF-7 (Breast cancer); SRB assay, 48 hours incubation): 68.9 µM | IC50 (HCT (Colon)): 92 µM | IC50 (A549 (Lung)): 61.5 µM | inhibition of tubulin polymerisation, in words (tubulin protein): strong inhibition | IC50 (tubulin protein): 0.6 µM

COc1cc(OC)c(OC)cc1/C=C1\C(=O)c2cc(OC)c(OC)c(OC)c2C1c1cc(OC)c(OC)c(OC)c1 (stereo not shown) [Compound 16, 2-(2″,4″,5″-trimethoxybenzylidene), 3-(3′,4′,5′-trimethoxyphenyl)-4,5,6-trimethoxy indan-1-one]
Human cancer cell lines IC50, HeLa (Cervix) (HeLa (Cervix)): Inactive | melting point: 203 to 205 °C | IC50 (PC-3 (prostate)): 64.9 µM | IC50 (THP-1 (Leukemia)): 81.5 µM | Human cancer cell lines IC50, DU-145 (prostate) (DU-145 (prostate)): Inactive | IC50 (MCF-7 (Breast cancer); SRB assay, 48 hours incubation): 56.5 µM | Human cancer cell lines IC50, HCT (Colon) (HCT (Colon)): Inactive | IC50 (A549 (Lung)): 87.2 µM | inhibition of tubulin polymerisation, in words (tubulin protein): strong inhibition | IC50 (tubulin protein): 4.21 µM

COc1cc(C2C(=Cc3ccccc3)C(=O)c3cc(OC)c(OC)c(OC)c32)cc(OC)c1OC (stereo not shown) [Compound 14, 2-benzylidene, 3-(3′,4′,5′-trimethoxyphenyl)-4,5,6-trimethoxy indan-1-one]
IC50 (HeLa (Cervix)): 14.1 µM | melting point: 139 to 141 °C | IC50 (PC-3 (prostate)): 50.6 µM | IC50 (THP-1 (Leukemia)): 32.7 µM | Human cancer cell lines IC50, DU-145 (prostate) (DU-145 (prostate)): Inactive | IC50 (MCF-7 (Breast cancer); SRB assay, 48 hours incubation): 42.5 µM | IC50 (HCT (Colon)): 14.9 µM | IC50 (A549 (Lung)): 47.5 µM | Tubulin polymerisation inhibition IC50 (tubulin protein): Inactive
